The values below come from patent publication US20220251036A1, “DIFLUOROHALOALLYLAMINE SULFONE DERIVATIVE INHIBITORS OF LYSYL OXIDASES, METHODS OF PREPARATION, AND USES THEREOF” (PHARMAXIS LTD., priority 2019, published 2022).

For the first test, the target named is T1, Human recombinant LOXL2 (Homo sapiens, UniProt Q9Y4K0).
T1 sequence (Q9Y4K0 26-774): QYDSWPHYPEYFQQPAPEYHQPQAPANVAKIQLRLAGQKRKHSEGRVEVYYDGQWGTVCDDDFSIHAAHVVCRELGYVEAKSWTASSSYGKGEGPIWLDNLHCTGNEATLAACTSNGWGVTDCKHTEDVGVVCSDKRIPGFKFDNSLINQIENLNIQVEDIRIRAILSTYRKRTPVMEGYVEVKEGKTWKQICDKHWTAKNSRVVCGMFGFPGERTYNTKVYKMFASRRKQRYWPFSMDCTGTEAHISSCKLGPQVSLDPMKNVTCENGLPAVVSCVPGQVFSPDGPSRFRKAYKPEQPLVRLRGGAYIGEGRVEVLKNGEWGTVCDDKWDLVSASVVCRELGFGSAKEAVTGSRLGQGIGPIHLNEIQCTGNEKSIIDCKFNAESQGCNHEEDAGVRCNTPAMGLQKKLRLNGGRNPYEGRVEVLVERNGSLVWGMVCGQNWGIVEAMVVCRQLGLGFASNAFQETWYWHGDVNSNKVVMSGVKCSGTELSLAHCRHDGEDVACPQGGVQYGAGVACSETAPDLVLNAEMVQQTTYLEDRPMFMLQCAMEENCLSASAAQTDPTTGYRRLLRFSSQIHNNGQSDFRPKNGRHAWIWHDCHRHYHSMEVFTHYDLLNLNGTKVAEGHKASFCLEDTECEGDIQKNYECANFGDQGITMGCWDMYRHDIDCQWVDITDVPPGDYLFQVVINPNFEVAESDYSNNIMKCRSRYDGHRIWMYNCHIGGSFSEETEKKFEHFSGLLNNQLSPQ
Description: LOXL2 inhibition, Amplex Red oxidation assay. The class given is biochemical.
Conditions: not given
As for the experimental part: LOX and LOXL protein family members can be acquired as recombinant active proteins from commercial sources, or extracted from animal tissues like bovine aorta, tendons, pig skin; or prepared from cell cultures. […] The assay was developed using either 384 or 96 well format. Briefly, in a standard black, clear bottom 384 well plate assay 25 μL of a dilution of any of the isoenzymes and orthologues in 1.2 M urea, 50 mM sodium borate buffer (pH 8.2) were added into each well in the presence of 1 μM mofegiline and 0.5 mM pargyline (to inhibit SSAO and MAO-B and MAO-A, respectively; not necessary if the enzyme is from a recombinant or purified form). Test compounds were dissolved in DMSO and tested in a Concentration Response Curve (CRC) with 11 data points, typically in the micromolar or nanomolar range after incubation with the enzyme for 30 min at 37° C. 25 μL of a reaction mixture containing twice the KM concentration of putrescine (Sigma Aldrich, e.g. 20 mM for LOX and LOXL1 or 10 mM for LOXL2 and 4 mM for LOXL3 and LOXL4), 120 μM Amplex Red (Sigma Aldrich) and 1.5 U/mL horseradish peroxidase (Sigma Aldrich) prepared in 1.2 M urea, 50 mM sodium borate buffer (pH 8.2) were then added to the corresponding wells. The above volumes were doubled in the case of 96 wells plate. The fluorescence (RFU) was read every 2.5 min for 30 min at […] 37° C., excitation 565 nm and emission 590 (Optima; BMG labtech). The slope of the kinetics for each well was calculated using MARS data analysis software (BMG labtech) and this value was used to deduce the IC50 value (Dotmatics). The ability of the inventive compounds to inhibit the amine oxidase activity of LOX and other family members is shown in Table 4.
Consider `NC/C=C(\F)C(F)(F)S(=O)(=O)c1ccccc1` [Compound 1, (Z)-3,4,4-trifluoro-4-(phenylsulfonyl)but-2-en-1-amine], for which the IC50 is 400 nM.

Staying with this test, now noted: incubation with enzyme 30 min at 37° C; read-out: Human recombinant LOXL2 Activity IC50.
`Cc1ccccc1S(=O)(=O)C(F)(F)/C(F)=C/CN` [Compound 5, (Z)-3,4,4-trifluoro-4-(o-tolylsulfonyl)but-2-en-1-amine]: the IC50 worked out at 500 nM.
The same measure, in the same setting: under `N#CCCN` [BAPN, β-aminopropionitrile, reference compound] stands 400 nM; under `NC/C=C(\F)C(F)(F)S(=O)(=O)C1CCCC1` [Compound 19, (Z)-4-(cyclopentylsulfony1)-3,4,4-trifluorobut-2-en-1-amine], 500 nM.
Same read-out and setting: then `CNc1ccccc1S(=O)(=O)C(F)(F)/C(F)=C/CN` [Compound 4, (Z)-2-((4-amino-1,1,2-trifluorobut-2-en-yl)sulfony1)-N-methylaniline], with 1000 nM; and `Cc1ccc(S(=O)(=O)C(F)(F)/C(F)=C/CN)cc1` [Compound 6, (Z)-3,4,4-trifluoro-4-tosylbut-2-en-1-amine], with 500 nM.
`COc1cccc(S(=O)(=O)C(F)(F)/C(F)=C/CN)c1` [Compound 12, (Z)-3,4,4-trifluoro-4-((3-methoxyphenyl)sulfonyl)but-2-en-1-amine]: the IC50 is 600 nM.
Same read-out and setting: under `NC/C=C(\F)C(F)(F)S(=O)(=O)c1cccc2cccnc12` [Compound 2, (Z)-3,4,4-trifluoro-4-(quinolin-8-ylsulfonyl)but-2-en-1-amine] stands 1800 nM; under `CS(=O)(=O)c1ccc(COc2ccccc2S(=O)(=O)C(F)(F)/C(F)=C/CN)cc1` [Compound 10, (Z)-3,4,4-trifluoro-4-((2-((4-(methylsulfonyl)benzyl)oxy)phenyl)sulfonyl) but-2-en-1-amine], 100 nM.
On the same count and under the same terms, under `CS(=O)(=O)c1cccc(CS(=O)(=O)C(F)(F)/C(F)=C/CN)c1` [Compound 17, (Z)-3,4,4-trifluoro-4-((3-(methylsulfonyl)benzyl)sulfonyl)but-2-en-1-amine] stands 400 nM.
Consider `NC/C=C(\F)C(F)(F)S(=O)(=O)c1cccs1` [Compound 14, (Z)-3,4,4-trifluoro-4-(thiophen-2-ylsulfonyl)but-2-en-1-amine], for which the IC50 was found to be 300 nM.
Consider `NC/C=C(\F)C(F)(F)[S+]([O-])c1ccccc1` (stereo not shown) [Compound 9, (Z)-3,4,4-trifluoro-4-(phenylsulfinyl)but-2-en-1-amine], for which the IC50 came to 1400 nM.
Take `NC/C=C(\F)C(F)(F)S(=O)(=O)Cc1ccccc1` [Compound 8, (Z)-4-(benzylsulfony1)-3,4,4-trifluorobut-2-en-1-amine]: the IC50 came to 300 nM.
